Structures can show the parent of a compound that is named as a salt. Where two headings read alike, the source gives them in different places.

Data set [1] deals with C6 glioma. Kind of data set: Dose response (percent survival) in C6 glioma cell cultures. The format is cell-based, rat. As to conditions: for EC50: Rattus norvegicus, C6 glioma, 96 h, C6 glioma cells, 4 days of treatment, percent survival. The source says: (§1) 6,7-Dimethoxy-1-[4-(4-methoxypyridin-3-yl)benzyl]-1,2,3,4-tetrahydroisoquinolinehydrochloride (EDL-291) was synthesized as described herein in the laboratory of Dr. Duane D. Miller at The University of Tennessee Health Science Center. Briefly, the primary cultures of astrocytes and cultures of C6 glioma cell lines were handled identically with respect to treatment concentrations and manipulations of cells for the screening assays. The cells were trypsinized and transferred to 96-well plates at a cell density of 10^3 cells/mm^2 in the wells. The cells were grown overnight in 100 μL of 10% FCS BME in a 37° C. incubator containing a humid, 5% CO2 atmosphere.
(§2) EDL291 was dissolved completely to make a […] stock solution and diluted to produce a series of concentrations. A 20 μL aliquot of these initial solutions was added to 180 μl of 2% FCS BME to produce the test concentration. The vehicle solution was tested as a control. […] Immediately before treatment, the 10% FCS BME was removed from the cells and replaced with the 180 μl of the treatment medium. The cultured cells (normal primary cultures of rat brain astrocytes or C6 glioma purchased from ATCC) were incubated with test compound for 4 days. The cells were fixed with 4% paraformaldehyde, stained with 0.1% Cresylecth violet stain, and quantitated. The screening data was collected as four wells for each dose per compound (screening) or concentration (dose response curve). Also, the average growth of 8 wells with no treatment was used as a negative control for each plate (100% growth). The cells for dose response curves were grown in the same media and were handled in a similar manner as in the screening assays.
(§3) The cytotoxic character of each compound was reported as the percent survival, calculated as the average A560 for treated cells divided by A560 of untreated (100% control) cells, and expressed as a percentage. Values less than 100% indicate a cytostatic or cytotoxic effect. Dose response curves and EC50 values were attained via plots of percent survival vs. concentration.

The subject of data set [2] is normal primary cultures of rat brain astrocytes. Kind of data set: Dose response (percent survival) in primary cultures of astrocytes. Type of data set: cell-based. As to conditions: 4 days of treatment.
Description: as §1, §2, §3

The nature of data set [3]: Acute toxicity observation in treated glioma-bearing rats. Type of data set: in vivo, Sprague-Dawley rats. As to conditions: 40 mg/kg. As for the experimental part:
The tumor was allowed to grow for three days prior to treatment. EDL-291 (40 mg/kg) was delivered by IP delivery twice a day for the next seven days. Animals were placed into one of two treatment groups: 9 rats received carrier solution only (Hanks Balanced Salt Solution, HBSS plus 10% DMSO) and 9 rats received EDL-291. During the treatment period the animal were monitored daily. After a treating the animals for 7 days, the rats were deeply anesthetized with 26 mg/kg Rompium and 174 mg/kg Ketalar and perfused through the heart with saline followed by 4% paraformaldehyde in phosphate buffer (pH 7.4). Brains were removed from the skull, post-fixed for 24 hours and then placed in a 30% sucrose solution. The brains were sectioned at […] with a freezing microtome. One 1-in-5 series of sections was mounted on glass slides and stained by the Nissl method.
Approximately three days after tumor cell implantation, animals began receiving intraperitoneal administration of EDL-291 (40 mg/kg) twice daily for the next seven days. Animals were placed into one of two treatment groups: 9 rats received vehicle only (10% DMSO in Hanks Balanced Salt Solution, HBSS) and 9 rats received EDL-291. Animals were monitored daily during the treatment period. […]

Data set [4] relates to C6 glioma. Kind of data set: C6 glioma transplanted into rat brain, tumor size determination. Type of data set: in vivo, Sprague-Dawley rats. As for the experimental part: For studies in which C6 glioma are transplanted into the brain, a C6 cell line produced in the inventors' laboratory that caries the β-galactosidase marker was used. The cell line was transfected with the pCMVβ expression vector (Clontech, Palo Alto, Calif.) and stable transfectants were selected using G418 (GibcoBRL). The glioma cells were plated at a density of 5×10^3 cells/cm^2 into T-75 culture flasks. The cells were allowed to grow to confluence in BME with 10% fetal calf serum. On the day before transplantation, the cultures were rinsed with Hank's Balanced Salt Solution placed in BME with 10% rat serum (Equitech-Bio Inc., Kerrville, Tex.).
A total of 18 male Sprague-Dawley rats (250-350 g) were deeply anesthetized with (13 mg/kg, Rompom and 87 mg/kg, Ketalar) for the surgery. The rats were monitored during the surgery to insure that they remained deeply anesthetized and unresponsive to pain. […]
The tumor was allowed to grow for three days prior to treatment. […] During the treatment period the animal were monitored daily. […]
The size of tumors in each animal was measured. […] The digital images were analyzed to define the volume of the tumor using the program NIH image. […] The codes were released and the data compiled and analyzed using a Student t test. […]

The mark [5] stands for this setting: Rattus norvegicus, Astrocyte, 96 h.

Turning to `Clc1ccncc1-c1ccc(CC2NCCc3cc4c(cc32)OCO4)cc1` (stereo not shown) [Compound 42, 5-[4-(4-Chloropyridin-3-yl)benzyl]-5,6,7,8-tetrahydro-[1,3]dioxolo[4,5-g]isoquinoline dihydrochloride salt], the EC50 in data set [1] worked out at 2.5 µM; in data set [2] (setting [5]) it was 81.5 µM.
On to `COc1ccncc1-c1ccc(CC2c3cc4c(cc3CCN2C(=O)OC(C)(C)C)OCO4)cc1` (stereo not shown) [Compound 43, 5-[4-(4-methoxypyridin-3-yl)benzyl]-7,8-dihydro-5H-[1,3]dioxolo[4,5-g]isoquinoline-6-carboxylic acid tert-butyl ester], for which the EC50 in data set [1] came out at 5.8 µM; in data set [2] (setting [5]) it was 12.4 µM.
The like results for `COc1ccncc1-c1ccc(CC2NCCc3cc4c(cc32)OCO4)cc1` (stereo not shown) [Compound 45, 5-[4-(4-methoxypyridin-3-yl)benzyl]-5,6,7,8-tetrahydro-[1,3]dioxolo[4,5-g]isoquinoline dihydrochloride salt] were, in that order, 1.3 µM and 8.3 µM.
As to `COc1cc2c(cc1OC)C(Cc1ccc(-c3cnccc3OC)cc1)NCC2.Cl` (stereo not shown) [EDL-291, 6,7-Dimethoxy-1-[4-(4-methoxypyridin-3-yl)benzyl]-1,2,3,4-tetrahydroisoquinolinehydrochloride], the acute toxicity result in data set [3] was “no evidence of acute toxicity”. Moreover, the “tumors smaller on average than in control rats” value in data set [4] (40 mg/Kg BID IP for 7 days, n=9, p=0.02 (student t test)) is 32%. For the same molecule, in data set [4] (40 mg/kg IP twice daily for 7 days), the “tumor size compared to vehicle control animals (in words)” value is “statistically significant reduction in tumor size”. The “fold difference in effect concentration, C6 glioma relative to normal brain astrocytes” value in data set [1] (EC50 astrocytes vs EC50 C6 glioma) was 36 fold. Also, the EC50 in data set [1] was found to be 0.6 µM; in data set [2] (read-out: EC50 μM Astrocyte), 26 µM; in data set [2] (setting [5]) it was 22.8 µM.

By EC50 is commonly meant the midpoint of the concentration-response curve.
